# Results: patent US20180296456A1, “Decapeptide-12 Modulation of Sirtuin Gene Expression in Epidermal Keratinocyte Progenitors” (Escape Therapeutics, Inc., priority 2017, published 2018)
# Peptide text beside a SMILES is read from it.
# What was measured:
# [1] = MTT cell proliferation assay, fibroblasts; type: cell-based, human; settings: human, MTT, 72 h, read-out: fibroblast proliferation rate after 72 hours
# Description: (§1) Proliferation rates for three human cell lines (epidermal progenitors, melanoblasts, and fibroblasts) were determined using a TACS® MTT Cell Proliferation Kit. Cells were seeded at 2.5×10^4/well in 96-well plates in a humidified atmosphere with 5 percent CO2 at 37 degrees Celsius. Twenty-four hours later, the decapeptides were added to the corresponding wells at varying concentrations and incubated for 72 hours. The remainder of the procedure was performed following the manufacturer's protocol.
# [2] = in vitro; type: cell-based; settings: human, human epidermal progenitors
# Description: Proliferation rates were determined using a TACS® MTT Cell Proliferation Kit (R&D systems, Minneapolis, Minn.). Cells were seeded at 2.5×10^4/well in 96-well plates in a humidified atmosphere with 5 percent CO2 at 37 degrees Celsius. Twenty-four hours later, decapeptide-12 or oxyresveratrol were added to the corresponding wells at varying concentrations (0, 3, 10, 30, 100, 300, and 1000 μM), and cultures were then incubated for 72 hours. The remainder of the procedure was performed following the manufacturer's protocol.
# as §1
# [3] = Trypan blue cell viability, 7 days, melanoblasts; type: cell-based; settings: human, relative to control, read-out: melanoblast viability after 7 days
# Description: (§2) The effect of each of the decapeptides upon cell viability was also tested. In particular, cells were incubated with the decapeptide at various concentrations and then counted for viability relative to the control (untreated cells) using trypan blue. Cytotoxicity was measured according to the following formula:
# (§3) [1−(# of cells in control−# of live cells in test sample)/# of cells in control]×100 percent.
# [4] = Trypan blue cell viability, 7 days, epidermal progenitors; type: cell-based; settings: human, relative to control, read-out: epidermal progenitor viability after 7 days
# Description: as §2, §3
# [5] = tested on: SIRT7; experiment: SIRT7 transcription, semi-quantitative RT-PCR in human epidermal progenitors; type: cell-based; settings: 72 h
# Description: (§4) Human neonatal epidermal progenitors (Thermo Fisher Scientific, NY) were seeded in 6-well plates at a density of 2×10^5 cells/well. Each well received 2 ml of Epilife media containing 60 μM calcium chloride (Thermo Fisher Scientific, NY). Plates were incubated in a humidified chamber at 37 degrees Celsius and 5 percent CO2. Twenty-four hours later, cells were treated with various concentrations of oxyresveratrol or decapeptide-12 dissolved in PBS containing 5 percent DMSO. Control wells received vehicle only (5 percent DMSO and PBS). Final concentration of DMSO in each well was 0.05 percent.
# (§5) After a 72 hour incubation period, cells were trypsinized and total RNA extracted, using RNeasy kit (Qiagen, Valencia, Calif.) according to the manufacturer's protocol.
# (§6) RNA concentration was determined using nanodrop (Thermo fisher scientific, NY). Two μg of total RNA were used to synthesize cDNA using oligo dT primers and TaqMan reverse transcription reagents (Thermo fisher scientific, NY). The reaction was carried out in DNA Engine Peltier Thermal Cycler (Bio-Rad, Hercules, Calif.). The annealing temperature was 25 degrees Celsius for 10 minutes, followed by first strand synthesis at 48 degrees Celsius for 1 hour, and heat inactivation at 95 degrees Celsius for 5 minutes.
# (§7) The SIRT1-7 primers (table 1) were designed using Primer3. The semi-quantitative PCR reactions were performed on a DNA Engine Peltier Thermo Cycler (Bio-Rad, Hercules, Calif.). PCR was carried under the following conditions: denaturation at 94 degrees Celsius for 2 minutes and primer extension at 54 degrees Celsius for 30 seconds in 34 cycles for SIRT 1-7 and the housekeeping gene 18S.
# (§8) Samples were run and resolved on a 1.5 percent agarose gel containing 0.5 μg/ml of ethidium bromide and imaged using the FluorChem HD2 Imaging System (Protein simple, San Jose, Calif.). Densitometry analysis was carried out using the AlphaEase FC software (Protein simple, San Jose, Calif.). Intensity ratios were calculated as the intensity value for each gene divided by the intensity value of the internal control gene 18S.
# (§9) The effect of the decapeptides P4, P4A, P4B, and P4C upon the transcription levels of sirtuins 1-7 was evaluated. Table 4 summarizes transcription levels for all four decapeptides with the corresponding genes, at tested concentrations of: 10, 30, 50, 100, and 300 (all in μM).
# [6] = tested on: SIRT1; experiment: SIRT1 transcription, semi-quantitative RT-PCR in human epidermal progenitors; type: cell-based; settings: 72 h
# Description: as §4, §5, §6, §7, §8, §9
# [7] = MTT cell proliferation assay, melanoblasts; type: cell-based, human; settings: human, MTT, 72 h, read-out: melanoblast proliferation rate after 72 hours
# Description: as §1
# [8] = tested on: SIRT4; experiment: SIRT4 transcription, semi-quantitative RT-PCR in human epidermal progenitors; type: cell-based; settings: 72 h
# Description: as §4, §5, §6, §7, §8, §9
# [9] = tested on: SIRT2; experiment: SIRT2 transcription, semi-quantitative RT-PCR in human epidermal progenitors; type: cell-based; settings: 72 h
# Description: as §4, §5, §6, §7, §8, §9
smiles,measurement,setting,value
"CCCCCCCCCCCCCCCC(=O)N[C@@H](Cc1ccc(O)cc1)C(=O)N[C@@H](CCCNC(=N)N)C(=O)N[C@@H](CO)C(=O)N[C@@H](CCCNC(=N)N)C(=O)N[C@@H](CCCCN)C(=O)N[C@@H](Cc1ccc(O)cc1)C(=O)N[C@@H](CO)C(=O)N[C@@H](CO)C(=O)N[C@@H](Cc1c[nH]c2ccccc12)C(=O)N[C@@H](Cc1ccc(O)cc1)C(N)=O [P4A, Palmitoyl-YRSRKYSSWY-amide] (HELM PEPTIDE1{[CCCCCCCCCCCCCCCC(=O)[*:2]].Y.R.S.R.K.Y.S.S.W.Y.[am]}$$$$V2.0)","viability at 72 h, 3 µM",[1]; 3 μM,100%
same,"viability at 72 h, 10 µM",[1]; 10 μM,99 ± 1%
same,"viability at 72 h, 30 µM",[1]; 30 μM,98 ± 1%
same,"viability at 72 h, 50 µM",[1]; 50 μM,98 ± 1%
same,"viability at 72 h, 100 µM",[1]; 100 μM,97 ± 2%
same,"viability at 72 h, 300 µM",[1]; 300 μM,97 ± 2%
same,"viability at 72 h, 500 µM",[1]; 500 μM,96 ± 2%
same,"viability at 72 h, 1000 µM",[1]; 1000 μM,95 ± 2%
same,"viability at 72 h, 3 µM",[2],99 ± 1%
same,"viability at 72 h, 10 µM",[2],99 ± 1%
same,"viability at 72 h, 30 µM",[2],98 ± 1%
same,"viability at 72 h, 50 µM",[2],97 ± 1%
same,"viability at 72 h, 100 µM",[2],97 ± 2%
same,"viability at 72 h, 300 µM",[2],96 ± 2%
same,"viability at 72 h, 500 µM",[2],96 ± 2%
same,"viability at 72 h, 1000 µM",[2],94 ± 2%
same,"viability at 168 h, 3 µM",[3]; 3 μM,100%
same,"viability at 168 h, 10 µM",[3]; 10 μM,99 ± 1%
same,"viability at 168 h, 30 µM",[3]; 30 μM,98.5 ± 1%
same,"viability at 168 h, 50 µM",[3]; 50 μM,98 ± 1%
same,"viability at 168 h, 100 µM",[3]; 100 μM,97 ± 2%
same,"viability at 168 h, 300 µM",[3]; 300 μM,96.2 ± 2%
same,"viability at 168 h, 500 µM",[3]; 500 μM,95.6 ± 2%
same,"viability at 168 h, 1000 µM",[3]; 1000 μM,94.8 ± 2%
same,"viability at 168 h, 3 µM",[4]; 3 μM,100%
same,"viability at 168 h, 10 µM",[4]; 10 μM,99 ± 1%
same,"viability at 168 h, 30 µM",[4]; 30 μM,98.2 ± 1%
same,"viability at 168 h, 50 µM",[4]; 50 μM,97.5 ± 1%
same,"viability at 168 h, 100 µM",[4]; 100 μM,96.9 ± 2%
same,"viability at 168 h, 300 µM",[4]; 300 μM,95.6 ± 2%
same,"viability at 168 h, 500 µM",[4]; 500 μM,94.3 ± 2%
same,"viability at 168 h, 1000 µM",[4]; 1000 μM,93.6 ± 3%
same,SIRT7 transcription increase relative to control,[5]; 10 μM,29 ± 6%
same,SIRT7 transcription increase relative to control,[5]; 30 μM,33 ± 5%
same,SIRT7 transcription increase relative to control,[5]; 50 μM,52 ± 4%
same,SIRT7 transcription increase relative to control,[5]; 100 μM,87 ± 6%
same,SIRT7 transcription increase relative to control,[5]; 300 μM,113 ± 2%
same,SIRT1 transcription increase relative to control,[6]; 10 μM,18 ± 2%
same,SIRT1 transcription increase relative to control,[6]; 30 μM,19 ± 1%
same,SIRT1 transcription increase relative to control,[6]; 50 μM,42 ± 5%
same,SIRT1 transcription increase relative to control,[6]; 100 μM,144 ± 5%
same,SIRT1 transcription increase relative to control,[6]; 300 μM,184 ± 2%
same,"viability at 72 h, 3 µM",[7]; 3 μM,100%
same,"viability at 72 h, 10 µM",[7]; 10 μM,100%
same,"viability at 72 h, 30 µM",[7]; 30 μM,99 ± 1%
same,"viability at 72 h, 50 µM",[7]; 50 μM,98 ± 1%
same,"viability at 72 h, 100 µM",[7]; 100 μM,97 ± 2%
same,"viability at 72 h, 300 µM",[7]; 300 μM,97 ± 2%
same,"viability at 72 h, 500 µM",[7]; 500 μM,96 ± 2%
same,"viability at 72 h, 1000 µM",[7]; 1000 μM,95 ± 2%
same,SIRT4 transcription increase relative to control,[8]; 10 μM,16 ± 1%
same,SIRT4 transcription increase relative to control,[8]; 30 μM,16 ± 1%
same,SIRT4 transcription increase relative to control,[8]; 50 μM,9 ± 4%
same,SIRT4 transcription increase relative to control,[8]; 100 μM,98 ± 12%
same,SIRT4 transcription increase relative to control,[8]; 300 μM,65 ± 1%
same,SIRT2 transcription increase relative to control,[9]; 10 μM,14 ± 1%
same,SIRT2 transcription increase relative to control,[9]; 30 μM,15 ± 1%
same,SIRT2 transcription increase relative to control,[9]; 50 μM,6 ± 3%
same,SIRT2 transcription increase relative to control,[9]; 100 μM,48 ± 1%
same,SIRT2 transcription increase relative to control,[9]; 300 μM,30 ± 5%
